Read-outs that look alike come from different tables or passages of the source.
Molecular target: Human RNR (human M1 subunit and human M2 subunit) (Homo sapiens (Human), UniProt P23921)
Assay: Human RNR inhibition effect (formation of dCDP from CDP, HPLC)
Type: biochemical
Settings: 10 μM CDP, 37° C. for 30 minutes, read-out: RNR Enzyme inhibitory activity IC50
Experimental: The inhibitory activity against the ribonucleotide reduction reaction (hereinafter referred to as RNR reaction) of the test compound was determined by measuring the formation of deoxycytidine diphosphate (hereinafter referred to as dCDP) from cytidine diphosphate (hereinafter referred to as CDP) by the following method.
Human M1 subunit and human M2 subunit (mutant lacking amino terminal 59 amino acids), which are fused a histidine tag at the amino terminus, are overexpressed in Escherichia coli and are solubilized after collection, and histidine tagged human M1 and M2 proteins were purified on a nickel chelate column.
First, test compounds were serially diluted with DMSO. Next, human M1 protein and human M2 protein were added to an aqueous albumin solution derived from 0.02% fetal bovine serum, a DMSO solution of the compound of the present invention or the control DMSO solution (final concentration of DMSO was 1%) was added, and the mixture was allowed to stand for 20 minutes. Thereafter, the reaction buffer [50 mM HEPES buffer (pH 7.2) at the final concentration, 4 mM magnesium acetate at the final concentration, 100 mM potassium chloride at the final concentration, 6 mM dithiothreitol at the final concentration, 2 mM adenosine triphosphate at the final concentration, 0.24 mM nicotinamide adenine dinucleotide phosphate at final concentration] and 10 μM CDP at the final concentration were added and incubated at 37° C. for 30 minutes to perform RNR reaction. Immediately after the reaction, the reaction was stopped by heating at 100° C. for 15 minutes, followed by centrifugation at 10,000 rpm for 10 minutes. After the centrifugation, a portion (5 μL) of the resulting supernatant was analyzed with a high performance liquid chromatography (Shimadzu Corporation, Prominence) using Shim-pack XR-ODS (manufactured by Shimadzu GLC Co., 3.0×100 mm).

Chain of Human RNR (human M1 subunit and human M2 subunit) (P23921 whole entry): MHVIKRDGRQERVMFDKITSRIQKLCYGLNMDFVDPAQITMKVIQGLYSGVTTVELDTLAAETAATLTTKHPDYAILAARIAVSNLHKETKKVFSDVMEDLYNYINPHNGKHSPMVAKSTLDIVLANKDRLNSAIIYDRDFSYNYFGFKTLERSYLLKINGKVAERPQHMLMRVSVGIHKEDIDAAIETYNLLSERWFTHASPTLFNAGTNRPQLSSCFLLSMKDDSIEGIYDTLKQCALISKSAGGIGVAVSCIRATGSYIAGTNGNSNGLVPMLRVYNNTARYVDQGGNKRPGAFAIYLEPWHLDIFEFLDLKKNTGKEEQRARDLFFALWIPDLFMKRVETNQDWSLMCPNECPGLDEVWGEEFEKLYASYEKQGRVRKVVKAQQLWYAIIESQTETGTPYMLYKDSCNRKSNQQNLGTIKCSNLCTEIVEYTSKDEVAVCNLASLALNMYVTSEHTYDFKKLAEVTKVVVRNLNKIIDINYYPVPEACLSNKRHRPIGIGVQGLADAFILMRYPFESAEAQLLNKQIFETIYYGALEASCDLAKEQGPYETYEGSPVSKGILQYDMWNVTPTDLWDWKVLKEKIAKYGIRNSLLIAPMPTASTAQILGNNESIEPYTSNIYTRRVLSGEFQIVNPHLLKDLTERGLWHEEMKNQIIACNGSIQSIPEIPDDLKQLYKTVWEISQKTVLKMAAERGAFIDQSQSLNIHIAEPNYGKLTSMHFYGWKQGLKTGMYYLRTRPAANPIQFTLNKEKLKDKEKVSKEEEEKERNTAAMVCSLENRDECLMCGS

Row | Compound | IC50 (human M1 and M2 proteins) [µM] | IC50 (human M1 and M2 subunits, formation of dCDP from CDP) [µM]
1 | [2H]C([2H])([2H])C1(O)CCOc2c(S(=O)(=O)N[C@H](c3n[nH]c(=O)o3)[C@H](C)c3c(F)ccc(Cl)c3C)ccc(Cl)c21 (single isomer, unassigned) [Example 228A] | 0.08 | –
2 | COc1c(S(=O)(=O)N[C@H](c2n[nH]c(=O)o2)[C@H](C)c2c(F)ccc(C)c2C)ccc(Cl)c1C(C)O (single isomer, unassigned) [Example 208A] | 0.1 | –
3 | Cc1c(Cl)ccc(F)c1[C@@H](C)[C@H](NS(=O)(=O)c1ccc(F)c2c1OCCC2(C)O)c1n[nH]c(=O)o1 (single isomer, unassigned) [Example 229A] | 0.06 | –
4 | Cc1ccc(F)c([C@@H](C)[C@H](NS(=O)(=O)c2ccc(Cl)c3c2OCCC3(O)C(F)(F)F)c2n[nH]c(=O)o2)c1C (single isomer, unassigned) [Example 220B] | 0.08 | –
5 | [2H]C([2H])([2H])C1(O)CCOc2c(S(=O)(=O)N[C@H](c3n[nH]c(=O)o3)[C@H](C)c3c(F)ccc(Cl)c3C)ccc(Cl)c21 (single isomer, unassigned) [Example 228B] | 0.14 | –
6 | Cc1c(Br)ccc(F)c1[C@@H](C)[C@H](NS(=O)(=O)c1ccc(Cl)c2c1OCCC2(C)O)c1n[nH]c(=O)o1 (single isomer, unassigned) [Example 222B] | 0.06 | –
7 | [2H]C([2H])([2H])C1(O)CCOc2c(S(=O)(=O)N[C@H](c3n[nH]c(=O)o3)[C@H](C)c3c(F)ccc(Br)c3C)ccc(Cl)c21 (single isomer, unassigned) [Example 226A] | 0.05 | –
8 | [2H]C([2H])([2H])C1(O)CCOc2c(S(=O)(=O)N[C@H](c3n[nH]c(=O)o3)[C@H](C)c3c(F)ccc(Br)c3C)ccc(Cl)c21 (single isomer, unassigned) [Example 226B] | 0.07 | –
9 | Cc1c(Br)ccc(F)c1[C@@H](C)[C@H](NS(=O)(=O)c1ccc(Cl)c2c1OCCC2(C)O)c1n[nH]c(=O)o1 (single isomer, unassigned) [Example 222A] | 0.08 | –
10 | Cc1ccc(F)c([C@@H](C)[C@H](NS(=O)(=O)c2ccc(Cl)c3c2OCCC3(O)C(F)(F)F)c2n[nH]c(=O)o2)c1C (single isomer, unassigned) [Example 220A] | 0.06 | –
11 | Cc1ccc(F)c([C@@H](C)[C@H](NS(=O)(=O)c2ccc(Cl)c3c2OCCC3(C)O)c2n[nH]c(=O)o2)c1C (single isomer, unassigned) [Example 207B] | 0.09 | –
12 | C=C(c1c(F)ccc(C)c1C)[C@H](NS(=O)(=O)c1ccc(Cl)cc1OC)c1n[nH]c(=O)o1 [Example 185, (S)-4-chloro-N-(2-(6-fluoro-2,3-dimethylphenyl)-1-(5-oxo-4,5-dihydro-1,3,4-oxadiazol-2-yl)allyl)-2-methoxybenzenesulfonamide] | – | 0.6
13 | Cc1c(Cl)ccc(F)c1[C@@H](C)[C@H](NS(=O)(=O)c1ccc(F)c2c1OCCC2(C)O)c1n[nH]c(=O)o1 (single isomer, unassigned) [Example 229B] | 0.11 | –
14 | Cc1c(Cl)ccc(F)c1[C@@H](C)[C@H](NS(=O)(=O)c1ccc(Cl)c2c1OCCC2(C)O)c1n[nH]c(=O)o1 (single isomer, unassigned) [Example 209B] | 0.18 | –
15 | Cc1ccc(F)c([C@@H](C)[C@H](NS(=O)(=O)c2ccc(Cl)c3c2OCCC3(C)O)c2n[nH]c(=O)o2)c1C (single isomer, unassigned) [Example 207A] | 0.13 | –
16 | Cc1ccc(F)c([C@@H](C)[C@H](NS(=O)(=O)c2ccc(F)c3c2OCCC3(C)O)c2n[nH]c(=O)o2)c1C (single isomer, unassigned) [Example 224B] | 0.1 | –
17 | Cc1c(Br)ccc(F)c1[C@@H](C)[C@H](NS(=O)(=O)c1ccc(F)c2c1OCCC2(C)O)c1n[nH]c(=O)o1 (single isomer, unassigned) [Example 227B] | 0.09 | –
18 | [2H]C([2H])([2H])C1(O)CCOc2c(S(=O)(=O)N[C@H](c3n[nH]c(=O)o3)[C@H](C)c3c(F)ccc(C)c3C)ccc(Cl)c21 (single isomer, unassigned) [Example 200B] | 0.08 | –
19 | COc1c(S(=O)(=O)N[C@H](c2n[nH]c(=O)o2)[C@H](C)c2c(F)ccc(C)c2C)ccc(Cl)c1C(C)O (single isomer, unassigned) [Example 208B] | 0.06 | –
20 | Cc1c(Cl)ccc(F)c1[C@@H](C)[C@H](NS(=O)(=O)c1ccc(Cl)c2c1OCCC2(C)O)c1n[nH]c(=O)o1 (single isomer, unassigned) [Example 209A] | 0.1 | –
21 | [2H]C([2H])([2H])C1(O)CCOc2c(S(=O)(=O)N[C@H](c3n[nH]c(=O)o3)[C@H](C)c3c(F)ccc(C)c3C)ccc(Cl)c21 (single isomer, unassigned) [Example 200A] | 0.03 | –
22 | Cc1c(Br)ccc(F)c1[C@@H](C)[C@H](NS(=O)(=O)c1ccc(F)c2c1OCCC2(C)O)c1n[nH]c(=O)o1 (single isomer, unassigned) [Example 227A] | 0.05 | –

Next, values leading:

Row | IC50 (human M1 and M2 proteins) [µM] | IC50 (human M1 and M2 subunits, formation of dCDP from CDP) [µM] | Compound
23 | 0.46 | – | Cc1c(Cl)ccc(F)c1[C@@H](C)[C@H](NS(=O)(=O)c1ccc(Cl)c2c1OCCC2(C)N)c1n[nH]c(=O)o1 (single isomer, unassigned) [Example 330B]
24 | 0.07 | – | Cc1c(Br)ccc(F)c1[C@@H](C)[C@H](NS(=O)(=O)c1ccc(Cl)c2c1OCCC2O)c1n[nH]c(=O)o1 (single isomer, unassigned) [Example 243A]
25 | 0.22 | – | Cc1ccc(F)c([C@@H](C)[C@H](NS(=O)(=O)c2ccc(C(F)(F)F)c3c2OCCC3O)c2n[nH]c(=O)o2)c1C (single isomer, unassigned) [Example 244B]
26 | 0.1 | – | Cc1c(Br)ccc(F)c1[C@@H](C)[C@H](NS(=O)(=O)c1ccc(Cl)c2c1OCCC2O)c1n[nH]c(=O)o1 (single isomer, unassigned) [Example 243B]
27 | 0.12 | – | Cc1c(Cl)ccc(F)c1[C@@H](C)[C@H](NS(=O)(=O)c1ccc(Cl)c2c1OCCC2(C)N)c1n[nH]c(=O)o1 (single isomer, unassigned) [Example 330A]
28 | 0.2 | – | CCc1ccc(F)c([C@@H](C)[C@H](NS(=O)(=O)c2ccc(Cl)c3c2OCCC3O)c2n[nH]c(=O)o2)c1C (single isomer, unassigned) [Example 239A]
29 | 0.07 | – | Cc1ccc(F)c([C@@H](C)[C@H](NS(=O)(=O)c2ccc(Cl)c3c2OCCC3O)c2n[nH]c(=O)o2)c1C (single isomer, unassigned) [Example 235B]
30 | 0.09 | – | Cc1ccc(F)c([C@@H](C)[C@H](NS(=O)(=O)c2ccc(C(F)(F)F)c3c2OCCC3O)c2n[nH]c(=O)o2)c1C (single isomer, unassigned) [Example 244A]
31 | 0.08 | – | Cc1ccc(F)c([C@@H](C)[C@H](NS(=O)(=O)c2ccc(Cl)c3c2OCCC3O)c2n[nH]c(=O)o2)c1C (single isomer, unassigned) [Example 235A]
32 | 0.29 | – | Cc1ccc(F)c([C@@H](C)[C@H](NS(=O)(=O)c2cccc3c2OC(C)(C)CC3O)c2n[nH]c(=O)o2)c1C (single isomer, unassigned) [Example 237A]
33 | 0.11 | – | Cc1c(Cl)ccc(F)c1[C@@H](C)[C@H](NS(=O)(=O)c1ccc(Cl)c2c1OCCC2O)c1n[nH]c(=O)o1 (stereo partly drawn) [Example 238A, 5-chloro-N-((1S,2R)-2-(3-chloro-6-fluoro-2-methylphenyl)-1-(5-oxo-4,5-dihydro-1,3,4-oxadiazol-2-yl)propyl)-4-hydroxychroman-8-sulfonamide]
34 | 0.05 | – | Cc1ccc(F)c([C@@H](C)[C@H](NS(=O)(=O)c2ccc(F)c3c2OCCC3O)c2n[nH]c(=O)o2)c1C (single isomer, unassigned) [Example 230B]
35 | 0.12 | – | Cc1ccc(F)c([C@@H](C)[C@H](NS(=O)(=O)c2ccc(F)c3c2OCCC3O)c2n[nH]c(=O)o2)c1C (single isomer, unassigned) [Example 230A]
36 | 0.31 | – | C[C@H](c1c(F)ccc2ccccc12)[C@H](NS(=O)(=O)c1ccc(Cl)c2c1OCCC2O)c1n[nH]c(=O)o1 (single isomer, unassigned) [Example 234A]

From US11634395B2, “Sulfonamide compound or salt thereof” (Taiho Pharmaceutical Co., Ltd., priority 2016, dated 2023)
